Measurements published in patent US20250228937A1, “MEDICAMENT FOR TREATMENT AND/OR PREVENTION OF CANCER” (TORAY INDUSTRIES, INC., priority 2021, published 2025).

T1: CAPRIN-1 protein (Homo sapiens, UniProt Q14444)
T1 construct: made in house
T1 sequence (Q14444 1-709): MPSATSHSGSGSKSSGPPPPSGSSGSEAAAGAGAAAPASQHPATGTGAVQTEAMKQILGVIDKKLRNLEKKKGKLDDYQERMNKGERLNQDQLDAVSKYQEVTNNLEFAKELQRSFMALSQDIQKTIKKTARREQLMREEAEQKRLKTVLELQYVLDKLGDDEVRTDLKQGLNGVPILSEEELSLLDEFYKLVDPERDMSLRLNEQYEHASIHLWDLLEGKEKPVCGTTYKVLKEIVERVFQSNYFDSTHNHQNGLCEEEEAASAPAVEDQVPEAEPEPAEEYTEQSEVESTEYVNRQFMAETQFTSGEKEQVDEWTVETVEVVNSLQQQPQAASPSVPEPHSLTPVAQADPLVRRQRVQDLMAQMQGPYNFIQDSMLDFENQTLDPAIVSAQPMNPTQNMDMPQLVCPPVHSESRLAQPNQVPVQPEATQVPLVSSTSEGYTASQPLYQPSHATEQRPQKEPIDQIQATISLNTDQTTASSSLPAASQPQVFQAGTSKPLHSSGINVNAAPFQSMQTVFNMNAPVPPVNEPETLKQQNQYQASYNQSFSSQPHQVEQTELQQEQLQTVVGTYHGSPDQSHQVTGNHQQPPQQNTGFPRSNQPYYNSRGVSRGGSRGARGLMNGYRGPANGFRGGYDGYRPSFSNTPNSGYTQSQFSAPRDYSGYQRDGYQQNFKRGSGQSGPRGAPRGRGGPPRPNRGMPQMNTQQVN

B1: (ab): mouse monoclonal antibody against CAPRIN-1 described in WO2013/125630, heavy-chain variable region SEQ ID NO: 114, light-chain variable region SEQ ID NO: 115 (antibody, listed as Mus musculus, V domains shown)
VH: GPELVKPGASVKMSCKASGYTFTSYVMHWVKQKPGQGLEWIGYINPYNDGTKYNEKFKGKATLTSDKSSSTAYMELSSLTSEDSAVYYCARRYYYGSSGGYFDVWAQDHVRT
VL: DVQITQSPSYLAASPGETITINCRASKSISKYLAWYQEKPGKTNKLLIYSGSTLQSGIPSRFSGSGSGTDFTLTISSLEPEDFAMYYCQQHNEYPYTFGGGTKLEIKR

How the values were obtained:
[1] = test system: human breast cancer cells BT474; experiment: In vivo antitumor effect of anti-CAPRIN-1 antibody and etoposide in BT474 cancer-bearing mice (Comparative Example 1); design: species or system NOD-SCID mice; conditions: etoposide alone, four times, day 55 after bearing cancer
Description: Next, an in vivo antitumor effect in a cancer-bearing mouse by a combined use of the anti-CAPRIN-1 antibody (anti-CAPRIN-1 humanized antibody #1) produced in Example 1 and etoposide (a topoisomerase inhibitor (topoisomerase II inhibitor) other than topotecan) was evaluated.
Specifically, the antitumor effect of the combination of the anti-CAPRIN-1 antibody and etoposide was studied using NOD-SCID mice in which human-derived cancer cells expressing CAPRIN-1 protein were subcutaneously transplanted. Human breast cancer cells BT474 were subcutaneously transplanted at 2×10^7 cells per mouse as a mixture with Matrigel (Sigma) and allowed to grow until a tumor became approximately 190 to 192 mm^3 to prepare cancer-bearing mice. […]
For a comparative control group, the same dose of the same anti-CAPRIN-1 antibody as above was administered once a week to cancer-bearing mice. […] After the start of administration, the sizes of cancers in the cancer-bearing mice were measured over time using calipers. The tumor volume of each individual was calculated according to a standard method using a calculation formula: (Length of the major axis of the tumor)×(Length of the minor axis of the tumor)^2×0.5, and the average of the treated group was calculated.

CAPRIN-1 protein = molecular target: T1, CAPRIN-1 protein; experiment: ELISA using CAPRIN-1 protein immobilized on a plate; assay type: binding
Description: One hundred (100) μg of a human CAPRIN-1 recombinant protein produced according to Example 3 of WO2010/016526 was mixed with an MPL+TDM adjuvant (Sigma) in an amount equivalent to that of the antigen protein. The mixture was used as an antigen solution per mouse. The antigen solution was administered intraperitoneally to 6-week-old Balb/c mice (Japan SLC Inc.) and then further administered 3 times […] every week for completion of immunization. A spleen was removed on day 3 after the final immunization and then ground between two sterilized glass slides. Spleen cells were obtained by repeating the following procedure three times: washing with PBS(−) (manufactured by Nissui Pharmaceutical Co., Ltd.), centrifuging at 1500 rpm for 10 minutes, and removing supernatant. The obtained spleen cells were mixed with mouse myeloma cell SP2/0 (purchased from ATCC) at a ratio of 10:1. The PEG solution prepared by mixing 200 μl of RPMI1640 medium containing 10% FBS heated at 37° C. and 800 μl of PEG1500 (Boehringer) was added to the cells. The solution was incubated for 5 minutes for cell fusion. Centrifugation was performed at 1700 rpm for 5 minutes to remove supernatants. […] Absorbance at 450 nm and absorbance at 595 nm were measured using an absorption spectrometer. As a result, a plurality of hybridomas producing antibodies with high absorbances were selected. […]

| Molecule | tumor volume, assuming that the tumor volume of the negative control was 100% ([1]; high dose 15 mg/kg once every four days) [%] | tumor volume, assuming that the tumor volume of the negative control was 100% ([1]; low dose 5 mg/kg once every four days) [%] | reactivity with CAPRIN-1 protein (CAPRIN-1 protein) |
| --- | --- | --- | --- |
| COc1cc([C@@H]2c3cc4c(cc3[C@@H](O[C@@H]3O[C@@H]5CO[C@@H](C)O[C@H]5[C@H](O)[C@H]3O)[C@H]3COC(=O)[C@H]23)OCO4)cc(OC)c1O [etoposide] | 79 | 92 |  |
| B1 |  |  | exhibiting reactivity |
